In the NIST ThermoML archive (doi:10.1016/j.tca.2017.11.006):
± gives the expanded uncertainty stated by the source.

Normal melting temperature (Crystal 1, DTA) | Structure (SMILES) | Triple point temperature (Crystal 2, DSC)
– | [K+].[O-][Cl+3]([O-])([O-])[O-] [potassium perchlorate] | 579.15 ± 2 K
662.00 ± 2 °C | [Al] [aluminum] | –
